Consider seven compounds from article PMC8395040 (International Journal of Molecular Sciences, 2021).

Read-outs that look alike come from different tables or passages of the source. Where only a bound is given, the exact number is not on record here.

Usually IC50 stands for the midpoint of a concentration-inhibition curve. For orientation: melting point means the temperature, or range, at which the solid turns liquid.

One series has as its system HCT116. Briefly: MTT cytotoxicity assay, HCT116. The following applies: Homo sapiens; for cytotoxicity at 50 µM: read-out: % Cytotoxicity (50 µM) HCT116; for IC50: 0.05–50 µM. In kind it is cell-based. The procedure:
(§1) Cytotoxicity assays were performed by using the MTT reduction method as described previously. Briefly, cancer cell lines were plated in flat-bottom 96-well plates at a cell concentration of 5 × 10^3 cells/well for the fastest growing lines, such as HEK293 and HT29 cells and 1 × 10^4 cells/well for more slowly growing lines, such as HCT116, H1975, BxPC-3, AsPC-1, B16-F10 and DAOY. Then, cells were incubated with the synthesised compounds at different concentrations (from 0.05 to 50 µM) in 200 µL with 10% FBS in RPMI 1640 or DMEM F12 culture medium at 37 °C for 72 h. Later, 10 µL of MTT were added at a final concentration of 0.5 mg/mL, incubated at 37 °C for 4 h, and then solubilised with 10% sodium dodecyl sulphate (SDS) in 0.1 mM HCl and incubated overnight at 37 °C. Formazan formation was measured at 570 nm in a multiwell plate reader (Cytation 5, Biotek Instruments, Winooski, VT, USA). Three independent biological replicates were performed.
For orientation: Tetrazolium assays rely on reduction of a dye to a coloured formazan, in cell work by metabolically active cells.

The test system of the next series is HEK293. The series can be described thus: MTT cytotoxicity assay, HEK293 control cells.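 Also: Read-out is formazan absorbance at 570 nm from MTT reduction in 96-well plates, with three independent biological replicates.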 The class given is cell-based, human. As to conditions: Homo sapiens, HEK293; MTT, 72 h, non-cancer cell line.
A short description of series [1]: MTT cytotoxicity assay, HEK293 control cells.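 Also: Read-out is formazan absorbance at 570 nm from MTT reduction in 96-well plates, with three independent biological replicates.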 In kind it is cell-based, human. As to conditions: human, HEK293 cells; 50 µM, 72 h, MTT.
The next series has as its system BxPC-3. Briefly: MTT cytotoxicity assay, BxPC-3. In kind it is cell-based. As to conditions: Homo sapiens, 72 h, 0.05–50 µM. Here is the method:
as §1

Another series deals with H1975. The series can be described thus: MTT cytotoxicity assay, H1975. The class given is cell-based. The following applies: Homo sapiens; for cytotoxicity at 50 µM: read-out: % Cytotoxicity (50 µM) H1975; for IC50: 0.05–50 µM. Here is the method:
as §1

For the next series, the system named is HT29. Briefly: MTT cytotoxicity assay, HT29. In kind it is cell-based. The following applies: Homo sapiens; for cytotoxicity at 50 µM: read-out: % Cytotoxicity (50 µM) HT29; for IC50: 0.05–50 µM. The procedure:
as §1

The test system of a further series is Daoy. The series can be described thus: MTT cytotoxicity assay, Daoy.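 As to all read-outs here: viability read as formazan absorbance at 570 nm after MTT reduction, three independent biological replicates.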 The class given is cell-based, human. The following applies: Homo sapiens, Daoy, 72 h; for IC50: 0.05–50 µM; for cytotoxicity at 50 µM: read-out: % Cytotoxicity (50 µM) DAOY.
For another series, the system named is AsPC-1. The series can be described thus: MTT cytotoxicity assay, AsPC-1. In kind it is cell-based. As to conditions: Homo sapiens, ASPC1, 72 h, 0.05–50 µM. The procedure:
as §1

Another series concerns tumour cell lines. The series can be described thus: MTT cytotoxicity assay, summary over the tumour cell line panel. The class given is cell-based, human. As to conditions: 50 µM, 72 h, MTT, tumour cell lines tested. Here is the method: as §1
The target of a further series is GLI-luciferase reporter. Set-up: method as in PMID 24923765. The following applies: cited from earlier work.

In turn, `CCCCn1cnc2c(-c3ccc(OC(F)(F)F)cc3)nc(NC3CCCC3)nc21` [Compound 4a, 9-Butyl-N-cyclopentyl-6-(4-(trifluoromethoxy)phenyl)-9H-purin-2-amine] yielded a melting point of 93 to 95 °C. Also, in the series on HCT116 (HCT-116, 50 µM, 72 h, MTT), the cytotoxicity at 50 µM was determined as 68 ± 0.3%. The compound further returned an IC50 with HCT116 (HCT-116, MTT, 72 h) of 32 ± 0.3 µM. The IC50 in the series on HEK293 was over 50 µM. The same compound displayed a cytotoxicity at 72 h, 50 µM in series [1] of under 50%. Besides, the IC50 in the series on BxPC-3 is over 50 µM. Also, the cytotoxicity at 50 µM in the series on H1975 (NCI-H1975, 50 µM, 72 h, MTT) came out at 66 ± 0.9%. This compound yielded an IC50 in the series on H1975 (NCI-H1975, MTT, 72 h) of 34 ± 0.9 µM. Besides, in the series on HT29 (HT-29, 50 µM, 72 h, MTT), the cytotoxicity at 50 µM was under 50%. Moreover, the IC50 in the series on HT29 (HT-29, MTT, 72 h) was over 50 µM. In addition, in the series on Daoy (MTT), the IC50 was 18 ± 0.2 µM. The cytotoxicity at 50 µM with Daoy (50 µM, MTT) is 82 ± 6.2%. In addition, in the series with AsPC-1, it took 20.1 ± 0.3 µM to reach half-maximal inhibition (IC50).

In turn, `CCCCCCn1cnc2c(-c3ccc(OC(F)(F)F)cc3)nc(NC3CCCC3)nc21` [Compound 4c, N-cyclopentyl-9-hexyl-6-(4-(trifluoromethoxy)phenyl)-9H-purin-2-amine] came in with a melting point of 58 to 60 °C. In addition, the cytotoxicity at 50 µM in the series on HCT116 (HCT-116, 72 h) is under 50%. This compound had an IC50 in the series on HCT116 (HCT-116, MTT, 72 h) of over 50 µM. The compound further had an IC50 in the series on HEK293 of over 50 µM. The cytotoxicity at 72 h, 50 µM in series [1] was under 50%. The IC50 with BxPC-3 is over 50 µM. The cytotoxicity at 50 µM in the series with H1975 (NCI-H1975, 72 h) is 19 ± 0.8%. Further, in the series with H1975 (NCI-H1975, MTT, 72 h), the IC50 was 19 ± 0.8 µM. Further, the cytotoxicity at 50 µM in the series with HT29 (HT-29, 72 h) was under 50%. In the series on HT29 (HT-29, MTT, 72 h), this compound yielded an IC50 of over 50 µM. The compound also showed an IC50 in the series on Daoy (MTT) of 31 ± 0.9 µM. For the same compound, the cytotoxicity at 50 µM with Daoy worked out at 69 ± 0.9%. This compound also came in with an IC50 in the series on AsPC-1 of over 50 µM.

`CCCCCn1cnc2c(-c3ccc(OC(F)(F)F)cc3)nc(NC3CCCCC3)nc21` [Compound 4e, N-cyclohexyl-9-pentyl-6-(4-(trifluoromethoxy)phenyl)-9H-purin-2-amine] registered a melting point of 108 to 110 °C. Also, the cytotoxicity at 50 µM with HCT116 (HCT-116, 72 h) is under 50%. The compound further returned a 50% inhibitory concentration (IC50) with HCT116 (HCT-116, MTT, 72 h) of over 50 µM. This compound also came in with an IC50 in the series on HEK293 of over 50 µM. Also, in [1], the cytotoxicity at 72 h, 50 µM is under 50%. In the series on BxPC-3, this compound displayed an IC50 of over 50 µM. For the same compound, the cytotoxicity at 50 µM in the series with H1975 (NCI-H1975, 72 h) was under 50%. In the series with H1975 (NCI-H1975, MTT, 72 h), this compound returned an IC50 of 23 ± 0.3 µM. In the series with HT29 (HT-29, 72 h), the cytotoxicity at 50 µM was under 50%. In the series with HT29 (HT-29, MTT, 72 h), this compound came in with an IC50 of over 50 µM. Also, the IC50 in the series with Daoy (MTT) is over 50 µM. Also, the cytotoxicity at 50 µM with Daoy is under 50%. Also, the IC50 in the series on AsPC-1 is over 50 µM.

Turning to `CCCCCn1cnc2c(-c3ccc(OC(F)(F)F)cc3)nc(NCC3CCCCC3)nc21` [Compound 4h, N-(cyclohexylmethyl)-9-pentyl-6-(4-(trifluoromethoxy)phenyl)-9H-purin-2-amine], the melting point is 78 to 79 °C. The cytotoxicity at 50 µM in the series with HCT116 (HCT-116, 72 h) was under 50%. Besides, in the series on HCT116 (HCT-116, MTT, 72 h), the 50% inhibitory concentration (IC50) is over 50 µM. For the same compound, the IC50 in the series on HEK293 is over 50 µM. This compound also displayed a cytotoxicity at 72 h, 50 µM in series [1] of under 50%. The compound further displayed an IC50 in the series on BxPC-3 of over 50 µM. Also, the cytotoxicity at 50 µM in the series with H1975 (NCI-H1975, 72 h) is 61 ± 1.2%. The IC50 in the series on H1975 (NCI-H1975, MTT, 72 h) was 39 ± 1.2 µM. In the series on HT29 (HT-29, 72 h), the cytotoxicity at 50 µM is under 50%. Further, the IC50 with HT29 (HT-29, MTT, 72 h) is over 50 µM. Also, inhibition with Daoy (MTT) was half-maximal at 19 ± 1.1 µM (IC50). Moreover, the cytotoxicity at 50 µM in the series on Daoy is 81 ± 1.1%. In the series on AsPC-1, this compound gave a concentration for half-maximal inhibition (IC50) of over 50 µM.

In turn, `CCCCCn1cnc2c(-c3ccc(OC(F)(F)F)cc3)nc(N3CCN(c4ccncc4)CC3)nc21` [Compound 4r, 9-Pentyl-2-(4-(pyridin-4-yl)piperazin-1-yl)-6-(4-(trifluoromethoxy)phenyl)-9H-purine] had a melting point of 109 to 110 °C. For the same compound, in the series with HCT116 (HCT-116, 50 µM, 72 h, MTT), the cytotoxicity at 50 µM came to 81 ± 0.8%. Also, in the series on HCT116 (HCT-116, MTT, 72 h), the IC50 stood at 19 ± 0.8 µM. The IC50 with HEK293 was over 50 µM. This compound also showed a cytotoxicity at 72 h, 50 µM in series [1] of under 50%. This compound gave an IC50 in the series with BxPC-3 of over 50 µM. The cytotoxicity at 50 µM in the series on H1975 (NCI-H1975, 50 µM, 72 h, MTT) was under 50%. This compound gave an IC50 in the series on H1975 (NCI-H1975, MTT, 72 h) of 7.7 ± 0.4 µM. In the series on HT29 (HT-29, 50 µM, 72 h, MTT), the cytotoxicity at 50 µM is under 50%. In the series with HT29 (HT-29, MTT, 72 h), this compound registered an IC50 of over 50 µM. In the series with Daoy (50 µM, MTT), the cytotoxicity at 50 µM was found to be 92 ± 0.4%. The IC50 in the series with AsPC-1 was over 50 µM. For the same compound, the “cytotoxicity in tumour cell lines” value in the series with tumour cell lines is listed as “more than 80%”.

Take `Cc1cccc(C)c1NC(=O)c1ccc(Nc2nc(-c3ccc(OC(F)(F)F)cc3)c3ncn(C)c3n2)cc1` [III]: the “IC50 in GLI-luciferase reporter assays” value at GLI-luciferase reporter is “nanomolar range”.

`Cc1ccc(CN2CCOCC2)cc1NC(=O)c1ccc(Nc2nc(-c3ccc(OC(F)(F)F)cc3)c3ncn(C)c3n2)cc1` [IV]: the “IC50 in GLI-luciferase reporter assays” value at GLI-luciferase reporter is “nanomolar range”.
